Source: US20080214599A1, “Use of Par-1/Par-4 Inhibitors for Treating or Preventing Vascular Diseases” (priority 2005, published 2008)

Tests used:
Type in all cases: in vivo, human
[1] = test system: PAR-1/PAR-4 (WEDE15); test: Flow cytometry, WEDE15 (PAR-1/PAR-4) in patients undergoing coronary stenting
Method: (§1) The study sought to compare the antiplatelet properties of prasugrel and clopidogrel in the frame of a Phase 2 randomized trial. Specifically, nine patients undergoing coronary stenting were randomized to one of three arms of prasugrel (40-60-60 mg loading, and 7.5-10-15 mg maintenance daily dose), or clopidogrel (300 mg/75 mg). Aspirin and GP IIb/IIIa inhibitors were allowed.

[2] = test system: CD62p (P-selectin); test: Flow cytometry, platelet surface expression of CD62p (P-selectin) in patients undergoing coronary stenting; parameters: CD62p (P-selectin), flow cytometry: unit not given here
Method: as §1

[3] = test system: CD165 (GP37); test: Flow cytometry, platelet CD165 (GP37) in patients undergoing coronary stenting; parameters: CD165 (GP37), flow cytometry: unit not given here
Method: as §1

[4] = test system: PAR-1/PAR-4 (SPAN12); test: Flow cytometry, SPAN12 (PAR-1/PAR-4) in patients undergoing coronary stenting
Method: as §1

[5] = test system: CD42 (GP-Ib); test: Flow cytometry, platelet surface expression of CD42 (GP-Ib) in patients undergoing coronary stenting; parameters: CD42 (GP-Ib), flow cytometry: unit not given here
Method: as §1

[6] = test system: CD40 ligand; test: Flow cytometry, platelet CD40 ligand in patients undergoing coronary stenting; parameters: CD40 ligand, flow cytometry: unit not given here
Method: as §1

[7] = test system: CD31 (PECAM-1); test: Flow cytometry, platelet surface expression of CD31 (PECAM-1) in patients undergoing coronary stenting
Method: as §1

[8] = test system: Thrombospondin; test: Flow cytometry, platelet thrombospondin in patients undergoing coronary stenting; parameters: Thrombospondin, flow cytometry: unit not given here
Method: as §1

[9] = test system: CD151+CD14; test: Flow cytometry, CD151+CD14 in patients undergoing coronary stenting; parameters: unit not given here
Method: as §1

[10] = test system: GPIIb/IIIa activity with PAC-1 antibody; test: GPIIb/IIIa activity with PAC-1 antibody in stented patients; conditions: independent of the dosing regimen; vs patients treated with clopidogrel
Method: (§2) The study sought to compare the antiplatelet properties of prasugrel and clopidogrel in the frame of a Phase 2 randomized trial. Specifically, nine patients undergoing coronary stenting were randomized to one of three arms of prasugrel (40-60-60 mg loading, and 7.5-10-15 mg maintenance daily dose), or clopidogrel (300 mg/75 mg). Aspirin and GP IIb/IIIa inhibitors were allowed. […] Applicants believe the above results are significant and establish a correlation between use of CS-747 (prasugrel) and inhibition of the activity or activation of PAR-1 and/or PAR-4 receptors. […] The correlations or trends shown in table 1 are independent of aspirin or Gb-11b inhibitor use by some patients at baseline. Confounding effects by aspirin or GB-IIb/IIIA use at baseline should be absent at 30 days.

[11] = test system: GPIIb/IIIa antigen; test: Surface expression of GPIIb/IIIa antigen in stented patients; conditions: independent of the dosing regimen; vs patients treated with clopidogrel
Method: as §2

[12] = test system: platelets; test: Ultegra Analyzer platelet function in stented patients; conditions: independent of the dosing regimen; vs patients treated with clopidogrel
Method: as §2

[13] = test system: platelets (collagen-induced aggregation); test: Collagen-induced platelet aggregation in stented patients; conditions: independent of the dosing regimen; vs patients treated with clopidogrel
Method: as §2

[14] = test system: platelets (ADP-induced aggregation); test: ADP-induced platelet aggregation in stented patients; conditions: independent of the dosing regimen; vs patients treated with clopidogrel
Method: as §2

[15] = 30 days after stent implantation
[16] = Baseline, patients undergoing coronary stenting
[17] = independent of the dosing regimen, vs patients treated with clopidogrel

In the case of COC(=O)[C@H](c1ccccc1Cl)N1CCc2sccc2C1 [clopidogrel, reference compound], the “WEDE15 (PAR-1/PAR-4), flow cytometry” value ([1]; 4 hr after stent implantation) is reported as 20.9 ± 9.3, the “WEDE15 (PAR-1/PAR-4), flow cytometry” value ([1]; 24 hr after stent implantation) is reported as 25.7 ± 9.6 and the “WEDE15 (PAR-1/PAR-4), flow cytometry” value [1, 15] is reported as 16.5 ± 3.2. For the same compound, the “WEDE15 (PAR-1/PAR-4), flow cytometry” value [1, 16] was 30.2 ± 10.9, the “CD62p (P-selectin), flow cytometry” value ([2]; 4 hr after stent implantation) was 10.0 ± 3.5 and the “CD62p (P-selectin), flow cytometry” value ([2]; 24 hr after stent implantation) was 9.8 ± 3.6. The “CD62p (P-selectin), flow cytometry” value [2, 15] was 9.6 ± 1.4, the “CD62p (P-selectin), flow cytometry” value [2, 16] was 10.4 ± 3.4 and the “CD165 (GP37), flow cytometry” value ([3]; 4 hr after stent implantation) was 17.8 ± 5.8. The “CD165 (GP37), flow cytometry” value ([3]; 24 hr after stent implantation) was 18.3 ± 4.2, the “CD165 (GP37), flow cytometry” value [3, 15] was 19.7 ± 3.0 and the “CD165 (GP37), flow cytometry” value [3, 16] was 23.9 ± 5.2. The “SPAN12 (PAR-1/PAR-4), flow cytometry” value ([4]; 4 hr after stent implantation) was 16.2 ± 5.0, the “SPAN12 (PAR-1/PAR-4), flow cytometry” value ([4]; 24 hr after stent implantation) was 17.1 ± 5.3 and the “SPAN12 (PAR-1/PAR-4), flow cytometry” value [4, 15] was 6.2 ± 0.9. For the same compound, the “SPAN12 (PAR-1/PAR-4), flow cytometry” value [4, 16] was 18.0 ± 4.8, the “CD42 (GP-Ib), flow cytometry” value ([5]; 4 hr after stent implantation) was 134.2 ± 37.3 and the “CD42 (GP-Ib), flow cytometry” value ([5]; 24 hr after stent implantation) was 129.8 ± 37.6. For the same compound, the “CD42 (GP-Ib), flow cytometry” value [5, 15] was 168.0 ± 48.0, the “CD42 (GP-Ib), flow cytometry” value [5, 16] was 135.2 ± 35.1 and the “CD40 ligand, flow cytometry” value ([6]; 4 hr after stent implantation) was 4.1 ± 1.3. The “CD40 ligand, flow cytometry” value ([6]; 24 hr after stent implantation) was 4.2 ± 1.3, the “CD40 ligand, flow cytometry” value [6, 15] was 6.5 ± 1.6 and the “CD40 ligand, flow cytometry” value [6, 16] was 5.5 ± 1.3. The “CD31 (PECAM-1), flow cytometry” value ([7]; 4 hr after stent implantation) was 41.6 ± 17.3, the “CD31 (PECAM-1), flow cytometry” value ([7]; 24 hr after stent implantation) was 38.0 ± 18.9 and the “CD31 (PECAM-1), flow cytometry” value [7, 15] was 58.6 ± 8.4. For the same compound, the “CD31 (PECAM-1), flow cytometry” value [7, 16] was 62.9 ± 12.2, the “Thrombospondin, flow cytometry” value ([8]; 4 hr after stent implantation) was 6.7 ± 2.0 and the “Thrombospondin, flow cytometry” value ([8]; 24 hr after stent implantation) was 7.8 ± 2.8. The “Thrombospondin, flow cytometry” value [8, 15] was 8.1 ± 1.3, the “Thrombospondin, flow cytometry” value [8, 16] was 7.1 ± 2.0 and the “CD151+CD14, flow cytometry” value ([9]; 4 hr after stent implantation) was 62.6 ± 14.4. For the same compound, the “CD151+CD14, flow cytometry” value ([9]; 24 hr after stent implantation) was 69.5 ± 22.4, the “CD151+CD14, flow cytometry” value [9, 15] was 66.0 ± 9.5 and the “CD151+CD14, flow cytometry” value [9, 16] was 67.1 ± 14.5.

CC(=O)Oc1cc2c(s1)CCN(C(C(=O)C1CC1)c1ccccc1F)C2 (stereo not drawn) [prasugrel, 2-acetoxy-5-(α-cyclopropylcarbonyl-2-fluorobenzyl)-4,5,6,7-tetrahydrothieno[3,2-c]pyridine] was tested, and the “Platelet inhibition by GPIIb/IIIa activity with PAC-1 antibody, compared with clopidogrel” value [10] was “more potent platelet inhibition”, the “WEDE15 (PAR-1/PAR-4), flow cytometry” value ([1]; 4 hr after stent implantation) was 17.0 ± 6.2 and the “WEDE15 (PAR-1/PAR-4), flow cytometry” value ([1]; 24 hr after stent implantation) was 19.6 ± 8.4. For the same compound, the “WEDE15 (PAR-1/PAR-4), flow cytometry” value [1, 15] was 15.3 ± 5.9, the “WEDE15 (PAR-1/PAR-4), flow cytometry” value [1, 16] was 37.0 ± 9.8 and the “Platelet inhibition by surface expression of GPIIb/IIIa antigen, compared with clopidogrel” value [11] was “more potent platelet inhibition”. For the same compound, the “CD62p (P-selectin), flow cytometry” value ([2]; 4 hr after stent implantation) was 8.9 ± 3.3, the “CD62p (P-selectin), flow cytometry” value ([2]; 24 hr after stent implantation) was 7.9 ± 1.4 and the “CD62p (P-selectin), flow cytometry” value [2, 15] was 5.2 ± 2.3. For the same compound, the “CD62p (P-selectin), flow cytometry” value [2, 16] was 10.8 ± 4.1, the “Platelet inhibition by surface expression of P-selectin, compared with clopidogrel” value [2, 17] was “more potent platelet inhibition” and the “CD165 (GP37), flow cytometry” value ([3]; 4 hr after stent implantation) was 17.8 ± 5.6. For the same compound, the “CD165 (GP37), flow cytometry” value ([3]; 24 hr after stent implantation) was 15.8 ± 5.7, the “CD165 (GP37), flow cytometry” value [3, 15] was 12.2 ± 2.8 and the “CD165 (GP37), flow cytometry” value [3, 16] was 24.7 ± 2.8. For the same compound, the “Platelet inhibition by surface expression of GP37, compared with clopidogrel” value [3, 17] was “more potent platelet inhibition”, the “SPAN12 (PAR-1/PAR-4), flow cytometry” value ([4]; 4 hr after stent implantation) was 13.3 ± 2.5 and the “SPAN12 (PAR-1/PAR-4), flow cytometry” value ([4]; 24 hr after stent implantation) was 12.0 ± 2.7. For the same compound, the “SPAN12 (PAR-1/PAR-4), flow cytometry” value [4, 15] was 6.6 ± 1.7, the “SPAN12 (PAR-1/PAR-4), flow cytometry” value [4, 16] was 19.5 ± 5.4 and the “CD42 (GP-Ib), flow cytometry” value ([5]; 4 hr after stent implantation) was 138.7 ± 38.3. The “CD42 (GP-Ib), flow cytometry” value ([5]; 24 hr after stent implantation) was 154.0 ± 39.6, the “CD42 (GP-Ib), flow cytometry” value [5, 15] was 110.0 ± 47.7 and the “CD42 (GP-Ib), flow cytometry” value [5, 16] was 145.9 ± 35.5. For the same compound, the “Platelet inhibition by surface expression of GPIb, compared with clopidogrel” value [5, 17] was “more potent platelet inhibition”, the “CD40 ligand, flow cytometry” value ([6]; 4 hr after stent implantation) was 4.8 ± 1.4 and the “CD40 ligand, flow cytometry” value ([6]; 24 hr after stent implantation) was 4.6 ± 1.1. The “CD40 ligand, flow cytometry” value [6, 15] was 3.7 ± 1.3, the “CD40 ligand, flow cytometry” value [6, 16] was 6.9 ± 0.8 and the “Platelet inhibition by surface expression of CD40-ligand, compared with clopidogrel” value [6, 17] was “more potent platelet inhibition”. For the same compound, the “CD31 (PECAM-1), flow cytometry” value ([7]; 4 hr after stent implantation) was 52.5 ± 29.3, the “CD31 (PECAM-1), flow cytometry” value ([7]; 24 hr after stent implantation) was 52.8 ± 28.7 and the “CD31 (PECAM-1), flow cytometry” value [7, 15] was 24.6 ± 24.4. For the same compound, the “CD31 (PECAM-1), flow cytometry” value [7, 16] was 69.9 ± 19.3, the “Platelet inhibition by surface expression of PECAM-1, compared with clopidogrel” value [7, 17] was “more potent platelet inhibition” and the “Platelet inhibition by Ultegra Analyzer, compared with clopidogrel” value [12] was “more potent platelet inhibition”. For the same compound, the “Platelet inhibition by collagen-induced aggregation, compared with clopidogrel” value [13] was “more potent platelet inhibition”, the “Platelet inhibition by ADP-induced aggregation, compared with clopidogrel” value [14] was “more potent platelet inhibition” and the “Thrombospondin, flow cytometry” value ([8]; 4 hr after stent implantation) was 6.4 ± 1.1. For the same compound, the “Thrombospondin, flow cytometry” value ([8]; 24 hr after stent implantation) was 6.7 ± 1.7, the “Thrombospondin, flow cytometry” value [8, 15] was 4.0 ± 0.7 and the “Thrombospondin, flow cytometry” value [8, 16] was 7.3 ± 2.2. For the same compound, the “Platelet inhibition by surface expression of thrombospondin receptor, compared with clopidogrel” value [8, 17] was “more potent platelet inhibition”, the “CD151+CD14, flow cytometry” value ([9]; 4 hr after stent implantation) was 60.1 ± 18.9 and the “CD151+CD14, flow cytometry” value ([9]; 24 hr after stent implantation) was 62.7 ± 29.2. The “CD151+CD14, flow cytometry” value [9, 15] was 61.8 ± 23.0 and the “CD151+CD14, flow cytometry” value [9, 16] was 73.0 ± 11.1.
